Experimental data: patent publication US20150140002A1, “USE OF A PCSK9 INHIBITOR TO TREAT […]” (Sanofi, priority 2013, published 2015)
Marks after values point to notes of the source that are not given here.

Experiments:
[1] = tested on: patients with primary hypercholesterolemia (heFH and non-FH) who are intolerant to statins; experiment: Example 3: randomized double-blind trial mAb316P versus ezetimibe (atorvastatin calibrator arm), lipid parameters; format: in vivo, human; conditions: for patients who reached LDL-C goal at week 24: goal <70 mg/dL very high risk, <100 mg/dL moderate and high risk; for LS mean LDL-C value at week 24: in vivo; for change in LDL-C level from baseline: week 24
Text: The present study was a randomized, double-blind, double-dummy, active-controlled, parallel-group, multi-national, multi-center study in patients with primary hypercholesterolemia and moderate, high, or very high CV risk who are intolerant to statins. The study design is illustrated in FIG. 7.
Primary Efficacy Endpoint: The primary efficacy endpoint was the percent change in calculated LDL-C from baseline to week 24, which was defined as: 100× (calculated LDL-C value at week 24—calculated LDL-C value at baseline)/calculated LDL-C value at baseline. A baseline LDL-C value was needed for each patient as the baseline calculated LDL-C value was the last LDL-C level obtained before the first double-blind study drug injection.
Total-C, HDL-C, TG, ApoB, ApoA-1, and Lp(a) were directly measured by a central laboratory as per a predetermined schedule. Low-density lipoprotein cholesterol was calculated using the Friedewald formula at all visits (except week −15 and the follow-up visit). If TG values exceeded 400 mg/dL (4.52 mmol/L), then the central lab measured (via the beta quantification method) the LDL-C rather than calculate it. Non-HDL-C was calculated by subtracting HDL-C from the total-C. Ratio ApoB/ApoA-1 was calculated.
The double-blind period efficacy endpoint analysis results in the order of statistical hierarchical testing as specified in the above protocol (with multiple testing controlled at the 0.05 significance level) is set forth in Table 12. Primary and key secondary efficacy analyses were performed comparing mAb316P-treated patients to ezetimibe-treated patients. For clarification, the ITT analysis is defined for patients in the ITT population and includes all endpoint assessments in an analysis window, regardless of study treatment dosing status (i.e. includes post-treatment assessments). The on-treatment analysis is defined for patients in the mITT population and includes all endpoint assessments from the first double-blind study drug (capsule or injection, whichever comes first) up to 21 days after the last double-blind study drug injection, or 3 days after the last capsule intake, whichever came first (i.e. includes assessments in the efficacy treatment period). Note: A result is statistically significant if the p-value is s 0.05, in the order of the hierarchical testing.

[2] = tested on: patients with genotype-confirmed hoFH; conditions: ezetimibe 10 mg/day added to maximal dose of statins; cited from earlier work
[3] = tested on: patient population with non-familial hypercholesterolemia or with heterozygous familial hypercholesterolemia; experiment: Phase 2 studies / earlier clinical data of mAb316P; format: in vivo, human
Text: The efficacy on LDL-C lowering was associated with consistent results in total-C, ApoB, non-HDL-C and ApoB/ApoA-1 ratio and a positive trend for HDL-C, TG and Lp(a).

[4] = tested on: healthy subjects and hypercholesterolemic patients (familial or non-familial); experiment: Phase 1 studies of mAb316P (safety, tolerability, PK/PD; IV or SC); format: in vivo, human
Description: Two studies were single dose administration (one study with IV administration of doses from 0.3 mg to 12 mg/kg and another study with SC administration of doses from 50 mg to 250 mg) conducted in healthy subjects with LDL-C>100 mg/dL for whom statin therapy was not indicated. The third study was conducted in hypercholesterolemic patients (familial or non-familial) with single to multiple SC administration of 50 mg, 100 mg, 150 mg and 200 mg either as add-on to stable doses of atorvastatin from 10 mg to 40 mg/day or as monotherapy.
No pattern of adverse events (AEs) related to the drug was identified. […] The magnitude and duration of these reductions were positively related to the dose administered. It should also be noted that in the third study, results were similar in the familial and non-familial hypercholesterolemic patients.

[5] = tested on: patients with primary hypercholesterolemia (heFH and non-FH) who are intolerant to statins; experiment: Example 3: safety (TEAEs, skeletal muscle-related events); conditions: in vivo
[6] = Example 2: serum mAb316P concentration (ELISA); format: in vivo, human
Description: If needed, total and free PCSK9 concentrations could be measured from the same PK sample.
To collect information on the absorption phase, an optional PK sample was collected at 5 days (±2) after the week 22 IMP injection or at 5 days (±2) after any subsequent IMP injection while the subject was on treatment.
The lower limit of quantification (LLQ) for this assay is 0.078 μg/mL.

[7] = WK24, ITT analysis, listed as EZE
[8] = WK24, ITT analysis, listed as Ezetimibe
[9] = clinical data available at commencement of Example 3 study

Compound: O=C1[C@H](CC[C@H](O)c2ccc(F)cc2)[C@@H](c2ccc(O)cc2)N1c1ccc(F)cc1 [ezetimibe, reference compound]
- Apo A-1 LS mean percent change from baseline ([1]; WK12, ITT analysis): LS mean: 3.9%
- Apo B LS mean percent change from baseline ([1]; WK12, ITT analysis): LS mean: −11.6%
- Fasting Triglycerides LS mean percent change from baseline ([1]; WK12, ITT analysis): LS mean: −9.4%
- HDL-C LS mean percent change from baseline ([1]; WK12, ITT analysis): LS mean: 7.6%
- LDL-C LS mean percent change from baseline ([1]; WK12, ITT analysis): LS mean: −15.6%
- Lp(a) LS mean percent change from baseline ([1]; WK12, ITT analysis): LS mean: −4.5%
- Non-HDL-C LS mean percent change from baseline ([1]; WK12, ITT analysis): LS mean: −15.8%
- Total Cholesterol LS mean percent change from baseline ([1]; WK12, ITT analysis): LS mean: −11.6%
- LDL-C LS mean percent change from baseline ([1]; WK12, on-treatment analysis): LS mean: −18.0%
- Apo A-1 LS mean percent change from baseline ([1]; WK24, ITT analysis): LS mean: 2.9%
- Fasting Triglycerides LS mean percent change from baseline ([1]; WK24, ITT analysis): LS mean: −3.5%
- HDL-C LS mean percent change from baseline ([1]; WK24, ITT analysis): LS mean: 6.8%
- LDL-C LS mean percent change from baseline ([1]; WK24, ITT analysis): −14.6%
- Proportion with LDL-C <70 mg/dL ([1]; WK24, ITT analysis): Proportion = 0.8%
- Proportion with Very High CV LDL-C <70 mg/dL OR Moderate/High CV LDL-C <100 mg/dL ([1]; WK24, ITT analysis): Proportion = 4.1%
- Total Cholesterol LS mean percent change from baseline ([1]; WK24, ITT analysis): LS mean: −10.9%
- Apo B LS mean percent change from baseline [1, 7]: −11.2* %
- LDL-C LS mean percent change from baseline [1, 7]: -14.6%
- Lp(a) LS mean percent change from baseline [1, 7]: −7.3* %
- Non-HDL-C LS mean percent change from baseline [1, 7]: −14.6* %
- Apo B LS mean percent change from baseline [1, 8]: LS mean: −11.2%
- LDL-C LS mean percent change from baseline [1, 8]: LS mean: −14.6%
- Lp(a) LS mean percent change from baseline [1, 8]: LS mean: −7.3%
- Non-HDL-C LS mean percent change from baseline [1, 8]: LS mean: −14.6%
- Apo B LS mean percent change from baseline ([1]; WK24, on-treatment analysis): LS mean: −14.4%
- LDL-C LS mean percent change from baseline ([1]; WK24, on-treatment analysis): LS mean: −17.1%
- Non-HDL-C LS mean percent change from baseline ([1]; WK24, on-treatment analysis): LS mean: −17.1%
- Proportion with LDL-C <70 mg/dL ([1]; WK24, on-treatment analysis): Proportion = 0.8%
- Proportion with Very High CV LDL-C <70 mg/dL OR Moderate/High CV LDL-C <100 mg/dL ([1]; WK24, on-treatment analysis): Proportion = 4.2%
- patients who reached LDL-C goal at week 24 [1]: 4.4%
- LS mean LDL-C value at week 24 [1]: 159.9 mg/dL
- change in LDL-C level from baseline [1]: -33 mg/dL
- total reduction of LDL-C levels [2]: 27%

Compound: mAb316P: human anti-PCSK9 antibody; heavy chain SEQ ID NO:5, light chain SEQ ID NO:9; HCVR SEQ ID NO:1, LCVR SEQ ID NO:6
- LDL-C lowering effect [3, 9]: significant LDL-C lowering effect
- tolerability [3, 9]: generally well-tolerated
- serum total concentrations of mAb316P during the 8-week follow-up period ([3]; preliminary PK data from Phase 2 studies): still detectable, but at very low levels
- reductions from baseline in LDL-C ([4]; Phase 1 studies, up to (maximum)): up to 60%
- tolerability ([4]; healthy subjects and patients, all doses): generally well tolerated at all doses
- Apo A-1 Diff mAb316P vs ezetimibe ([1]; WK12, ITT analysis): Diff: 1.6%
- Apo A-1 LS mean percent change from baseline ([1]; WK12, ITT analysis): LS mean: 5.5%
- Apo B Diff mAb316P vs ezetimibe ([1]; WK12, ITT analysis): Diff: −24.5%
- Apo B LS mean percent change from baseline ([1]; WK12, ITT analysis): LS mean: −36.1%
- Fasting Triglycerides Diff mAb316P vs ezetimibe ([1]; WK12, ITT analysis): Diff: 1.3%
- Fasting Triglycerides LS mean percent change from baseline ([1]; WK12, ITT analysis): LS mean: −8.1%
- HDL-C Diff mAb316P vs ezetimibe ([1]; WK12, ITT analysis): Diff: 1.4%
- HDL-C LS mean percent change from baseline ([1]; WK12, ITT analysis): LS mean: 9.0%
- LDL-C Diff mAb316P vs ezetimibe ([1]; WK12, ITT analysis): Diff: −31.5%
- LDL-C LS mean percent change from baseline ([1]; WK12, ITT analysis): LS mean: −47.0%
- Lp(a) Diff mAb316P vs ezetimibe ([1]; WK12, ITT analysis): Diff: −17.2%
- Lp(a) LS mean percent change from baseline ([1]; WK12, ITT analysis): LS mean: −21.7%
- Non-HDL-C Diff mAb316P vs ezetimibe ([1]; WK12, ITT analysis): Diff: −25.7%
- Non-HDL-C LS mean percent change from baseline ([1]; WK12, ITT analysis): LS mean: −25.7%
- Total Cholesterol Diff mAb316P vs ezetimibe ([1]; WK12, ITT analysis): Diff: −21.1%
- Total Cholesterol LS mean percent change from baseline ([1]; WK12, ITT analysis): LS mean: −32.7%
- LDL-C Diff mAb316P vs ezetimibe ([1]; WK12, on-treatment analysis): Diff: −33.1%
- LDL-C LS mean percent change from baseline ([1]; WK12, on-treatment analysis): LS mean: −51.2%
- Apo A-1 Diff mAb316P vs ezetimibe ([1]; WK24, ITT analysis): Diff: 1.9%
- Apo A-1 LS mean percent change from baseline ([1]; WK24, ITT analysis): LS mean: 4.8%
- Fasting Triglycerides Diff mAb316P vs ezetimibe ([1]; WK24, ITT analysis): Diff: −5.6%
- Fasting Triglycerides LS mean percent change from baseline ([1]; WK24, ITT analysis): LS mean: −9.2%
- HDL-C Diff mAb316P vs ezetimibe ([1]; WK24, ITT analysis): Diff: 0.9%
- HDL-C LS mean percent change from baseline ([1]; WK24, ITT analysis): LS mean: 7.7%
- Proportion with LDL-C <70 mg/dL ([1]; WK24, ITT analysis): Proportion = 32.5%
- Proportion with Very High CV LDL-C <70 mg/dL OR Moderate/High CV LDL-C <100 mg/dL ([1]; WK24, ITT analysis): Proportion = 41.3%
- Total Cholesterol Diff mAb316P vs ezetimibe ([1]; WK24, ITT analysis): Diff: −20.8%
- Total Cholesterol LS mean percent change from baseline ([1]; WK24, ITT analysis): LS mean: −31.8%
- Apo B Diff mAb316P vs ezetimibe ([1]; WK24, on-treatment analysis): Diff: −28.2%
- Apo B LS mean percent change from baseline ([1]; WK24, on-treatment analysis): LS mean: −42.6%
- LDL-C Diff mAb316P vs ezetimibe ([1]; WK24, on-treatment analysis): Diff: −35.1%
- LDL-C LS mean percent change from baseline ([1]; WK24, on-treatment analysis): LS mean: −52.2%
- Non-HDL-C Diff mAb316P vs ezetimibe ([1]; WK24, on-treatment analysis): Diff: −29.8%
- Non-HDL-C LS mean percent change from baseline ([1]; WK24, on-treatment analysis): LS mean: −46.9%
- Proportion with LDL-C <70 mg/dL ([1]; WK24, on-treatment analysis): Proportion = 39.0%
- Proportion with Very High CV LDL-C <70 mg/dL OR Moderate/High CV LDL-C <100 mg/dL ([1]; WK24, on-treatment analysis): Proportion = 50.4%
- patients who reached LDL-C goal at week 24 [1]: 41.9%
- LS mean LDL-C value at week 24 [1]: 108.5 mg/dL
- change in LDL-C level from baseline [1]: -84 mg/dL
- patients positively adjudicated for non-fatal MI [5]: one (0.8%) patient (%)
- serum MAb316P Ctrough, mean (SD) ([6]; Week 4, non-uptitrated (n = 32)): 5784.7 (2456.4) ng/mL
- serum MAb316P Ctrough, mean (SD) ([6]; Week 4, uptitrated at Week 12 (n = 14)): 4533.9 (3996.5) ng/mL
- serum MAb316P Ctrough, mean (SD) ([6]; Week 12, non-uptitrated (n = 32)): 5979.0 (2780.3) ng/mL
- serum MAb316P Ctrough, mean (SD) ([6]; Week 12, uptitrated at Week 12 (n = 14)): 5702.9 (4816.4) ng/mL
- serum MAb316P Ctrough, mean (SD) ([6]; Week 24, non-uptitrated, 75 mg Q2W (n = 32)): 6991.4 (4418.4) ng/mL
- serum MAb316P Ctrough, mean (SD) ([6]; Week 24, uptitrated to 150 mg Q2W at Week 12 (n = 14)): 14772.2 (10201.7) ng/mL
- change of serum mAb316P levels after uptitration ([6]; patients uptitrated at Week 12 (75 to 150 mg Q2W)): approximately doubled
